Data: ChEMBL document CHEMBL1201862, “PubChem BioAssay data set” (2004)
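The compound was tested at five concentrations on cells cultured in 96-well plates, with a 48-hour exposure period. Abbreviation: GI50, concentration required for 50% inhibition of growth.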 Active and inactive are the calls of the source. Cut-off read from the data, not from the text of the source: active = GI50 up to about 1.1 µM and inactive = higher.

Key:
Experiment in all cases: growth of human tumour cells (NCI), 48 h
NCI-H226 = test system: NCI-H226
NCI-H23 = test system: NCI-H23
RPMI-8226 = test system: RPMI-8226
OVCAR-8 = test system: OVCAR-8
UACC-257 = test system: UACC-257
SF-539 = test system: SF-539
HOP-62 = test system: HOP-62
BT-549 = test system: BT-549
T47D = test system: T47D
TK-10 = test system: TK-10
HL-60 = test system: HL-60
SK-MEL-2 = test system: SK-MEL-2
COLO 205 = test system: COLO 205
RXF 393 = test system: RXF 393
IGROV-1 = test system: IGROV-1
DU-145 = test system: DU-145
MDA-N = test system: MDA-N
A549 = test system: A549
SNB-75 = test system: SNB-75
SW-620 = test system: SW-620

Compound: CCO/C=C1\SC(=S)N(c2ccc(OCC)cc2)C1=O
- GI50 (NCI-H226): 69.7 µM (inactive)
- GI50 (NCI-H23): > 100 µM (inactive)
- GI50 (RPMI-8226): 41.5 µM (inactive)
- GI50 (OVCAR-8): > 100 µM (inactive)
- GI50 (UACC-257): 78.7 µM (inactive)
- GI50 (SF-539): 44.9 µM (inactive)
- GI50 (HOP-62): > 100 µM (inactive)
- GI50 (BT-549): > 100 µM (inactive)
- GI50 (T47D): 28.9 µM (inactive)
- GI50 (TK-10): 90.4 µM (inactive)
- GI50 (HL-60): > 100 µM (inactive)
- GI50 (SK-MEL-2): 59.4 µM (inactive)
- GI50 (COLO 205): > 100 µM (inactive)
- GI50 (RXF 393): 33.3 µM (inactive)
- GI50 (IGROV-1): > 100 µM (inactive)
- GI50 (DU-145): 51.4 µM (inactive)
- GI50 (MDA-N): 45.2 µM (inactive)
- GI50 (A549): > 100 µM (inactive)
- GI50 (SNB-75): 18.9 µM (inactive)
- GI50 (SW-620): > 100 µM (inactive)

Compound: O=C(O)C1[C@@H](C(=O)O)C1(Br)CBr (stereo not given in full)
- GI50 (NCI-H226): > 100 µM (inactive)
- GI50 (NCI-H23): > 100 µM (inactive)
- GI50 (RPMI-8226): > 100 µM (inactive)
- GI50 (OVCAR-8): > 100 µM (inactive)
- GI50 (UACC-257): > 100 µM (inactive)
- GI50 (SF-539): > 100 µM (inactive)
- GI50 (HOP-62): > 100 µM (inactive)
- GI50 (BT-549): > 100 µM (inactive)
- GI50 (T47D): > 100 µM (inactive)
- GI50 (TK-10): > 100 µM (inactive)
- GI50 (HL-60): > 100 µM (inactive)
- GI50 (SK-MEL-2): > 100 µM (inactive)
- GI50 (COLO 205): > 100 µM (inactive)
- GI50 (RXF 393): > 100 µM (inactive)
- GI50 (IGROV-1): > 100 µM (inactive)
- GI50 (DU-145): > 100 µM (inactive)
- GI50 (MDA-N): > 100 µM (inactive)
- GI50 (A549): > 100 µM (inactive)
- GI50 (SNB-75): > 100 µM (inactive)
- GI50 (SW-620): > 100 µM (inactive)

Compound: Cc1ccc2c(c1)C(=O)/C(=C1/CCc3ccc(C)cc31)C2
- GI50 (NCI-H226): > 100 µM (inactive)
- GI50 (NCI-H23): > 100 µM (inactive)
- GI50 (RPMI-8226): > 100 µM (inactive)
- GI50 (OVCAR-8): 48.6 µM (inactive)
- GI50 (UACC-257): > 100 µM (inactive)
- GI50 (SF-539): 54.7 µM (inactive)
- GI50 (HOP-62): > 100 µM (inactive)
- GI50 (BT-549): > 100 µM (inactive)
- GI50 (T47D): 14.7 µM (inactive)
- GI50 (TK-10): > 100 µM (inactive)
- GI50 (HL-60): > 100 µM (inactive)
- GI50 (SK-MEL-2): > 100 µM (inactive)
- GI50 (COLO 205): 57.9 µM (inactive)
- GI50 (RXF 393): > 100 µM (inactive)
- GI50 (IGROV-1): > 100 µM (inactive)
- GI50 (DU-145): > 100 µM (inactive)
- GI50 (MDA-N): > 100 µM (inactive)
- GI50 (A549): > 100 µM (inactive)
- GI50 (SNB-75): 13.9 µM (inactive)
- GI50 (SW-620): > 100 µM (inactive)

Compound: NCCNCCCCCCNC(=O)c1cccc2cc3ccccc3nc12
- GI50 (NCI-H226): 1.95 µM (inactive)
- GI50 (NCI-H23): 2.07 µM (inactive)
- GI50 (RPMI-8226): 2.01 µM (inactive)
- GI50 (OVCAR-8): 2.03 µM (inactive)
- GI50 (UACC-257): 6.1 µM (inactive)
- GI50 (SF-539): 1.93 µM (inactive)
- GI50 (HOP-62): 2 µM (inactive)
- GI50 (BT-549): 11.4 µM (inactive)
- GI50 (T47D): 5.13 µM (inactive)
- GI50 (TK-10): 8.51 µM (inactive)
- GI50 (HL-60): 1.39 µM (inactive)
- GI50 (SK-MEL-2): 2.87 µM (inactive)
- GI50 (COLO 205): 2.75 µM (inactive)
- GI50 (RXF 393): 3.95 µM (inactive)
- GI50 (IGROV-1): 3.9 µM (inactive)
- GI50 (DU-145): 0.632 µM (active)
- GI50 (MDA-N): 2.7 µM (inactive)
- GI50 (A549): 1.7 µM (inactive)
- GI50 (SNB-75): 3.94 µM (inactive)
- GI50 (SW-620): 1.49 µM (inactive)

Compound: O=C1CC(=O)c2c(N3CCCC3)sc(N3CCCC3)c21
- GI50 (NCI-H226): > 100 µM (inactive)
- GI50 (NCI-H23): > 100 µM (inactive)
- GI50 (RPMI-8226): > 100 µM (inactive)
- GI50 (OVCAR-8): > 100 µM (inactive)
- GI50 (UACC-257): > 100 µM (inactive)
- GI50 (SF-539): > 100 µM (inactive)
- GI50 (HOP-62): > 100 µM (inactive)
- GI50 (BT-549): > 100 µM (inactive)
- GI50 (T47D): > 100 µM (inactive)
- GI50 (TK-10): > 100 µM (inactive)
- GI50 (HL-60): > 100 µM (inactive)
- GI50 (SK-MEL-2): > 100 µM (inactive)
- GI50 (COLO 205): > 100 µM (inactive)
- GI50 (RXF 393): > 100 µM (inactive)
- GI50 (IGROV-1): > 100 µM (inactive)
- GI50 (DU-145): > 100 µM (inactive)
- GI50 (MDA-N): > 100 µM (inactive)
- GI50 (A549): > 100 µM (inactive)
- GI50 (SNB-75): > 100 µM (inactive)
- GI50 (SW-620): > 100 µM (inactive)

Compound: COc1ccccc1OCC(=N/NC(=O)c1ccncc1)/N=C/c1cccnc1
- GI50 (NCI-H226): > 100 µM (inactive)
- GI50 (NCI-H23): > 100 µM (inactive)
- GI50 (RPMI-8226): > 100 µM (inactive)
- GI50 (OVCAR-8): > 100 µM (inactive)
- GI50 (UACC-257): > 100 µM (inactive)
- GI50 (SF-539): > 100 µM (inactive)
- GI50 (HOP-62): > 100 µM (inactive)
- GI50 (BT-549): > 100 µM (inactive)
- GI50 (T47D): > 100 µM (inactive)
- GI50 (TK-10): > 100 µM (inactive)
- GI50 (HL-60): > 100 µM (inactive)
- GI50 (SK-MEL-2): > 100 µM (inactive)
- GI50 (COLO 205): > 100 µM (inactive)
- GI50 (RXF 393): > 100 µM (inactive)
- GI50 (IGROV-1): > 100 µM (inactive)
- GI50 (DU-145): > 100 µM (inactive)
- GI50 (MDA-N): > 100 µM (inactive)
- GI50 (A549): > 100 µM (inactive)
- GI50 (SNB-75): 36.5 µM (inactive)
- GI50 (SW-620): > 100 µM (inactive)

Compound: CCN(CC)CCn1ncc2c3c(=O)c4cccnc4n(CCN(CC)CC)c3ccc21
- GI50 (NCI-H226): > 10 µM (inactive)
- GI50 (NCI-H23): > 10 µM (inactive)
- GI50 (RPMI-8226): > 10 µM (inactive)
- GI50 (OVCAR-8): 7.93 µM (inactive)
- GI50 (UACC-257): > 10 µM (inactive)
- GI50 (SF-539): 9.27 µM (inactive)
- GI50 (HOP-62): > 10 µM (inactive)
- GI50 (BT-549): > 10 µM (inactive)
- GI50 (T47D): > 10 µM (inactive)
- GI50 (TK-10): > 10 µM (inactive)
- GI50 (HL-60): 8.2 µM (inactive)
- GI50 (SK-MEL-2): > 10 µM (inactive)
- GI50 (COLO 205): 2.32 µM (inactive)
- GI50 (RXF 393): > 10 µM (inactive)
- GI50 (IGROV-1): > 10 µM (inactive)
- GI50 (DU-145): > 10 µM (inactive)
- GI50 (MDA-N): > 10 µM (inactive)
- GI50 (A549): > 10 µM (inactive)
- GI50 (SNB-75): 9.66 µM (inactive)
- GI50 (SW-620): 3.77 µM (inactive)

Compound: CC(=O)OCC1OC(O[C@H]2C=C[C@@H](C(=O)OCc3ccccc3)n3c(=O)n(-c4ccccc4)c(=O)n32)C(OC(C)=O)C(OC(C)=O)C1OC(C)=O (stereo not given in full)
- GI50 (NCI-H226): 4.55 µM (inactive)
- GI50 (NCI-H23): 2.96 µM (inactive)
- GI50 (RPMI-8226): 0.879 µM (active)
- GI50 (OVCAR-8): 2.48 µM (inactive)
- GI50 (UACC-257): 1.92 µM (inactive)
- GI50 (SF-539): 1.82 µM (inactive)
- GI50 (HOP-62): 5.01 µM (inactive)
- GI50 (BT-549): 1.8 µM (inactive)
- GI50 (T47D): 2.62 µM (inactive)
- GI50 (TK-10): 2.02 µM (inactive)
- GI50 (HL-60): 0.262 µM (active)
- GI50 (SK-MEL-2): 4.66 µM (inactive)
- GI50 (COLO 205): 2 µM (inactive)
- GI50 (RXF 393): 2.24 µM (inactive)
- GI50 (IGROV-1): 2.34 µM (inactive)
- GI50 (DU-145): 2.61 µM (inactive)
- GI50 (MDA-N): 2.77 µM (inactive)
- GI50 (A549): 17.2 µM (inactive)
- GI50 (SNB-75): 10.9 µM (inactive)
- GI50 (SW-620): 1.77 µM (inactive)

Compound: O=[N+]([O-])C(C(Cl)=C(Cl)Cl)=C(n1nnc2ccccc21)n1nnc2ccccc21
- GI50 (NCI-H226): > 58.7 µM (inactive)
- GI50 (NCI-H23): 37.6 µM (inactive)
- GI50 (RPMI-8226): 24.8 µM (inactive)
- GI50 (OVCAR-8): 21.5 µM (inactive)
- GI50 (UACC-257): 48.9 µM (inactive)
- GI50 (SF-539): 28.2 µM (inactive)
- GI50 (HOP-62): 35.7 µM (inactive)
- GI50 (BT-549): > 51.1 µM (inactive)
- GI50 (T47D): 40.7 µM (inactive)
- GI50 (TK-10): 46.1 µM (inactive)
- GI50 (HL-60): 3.94 µM (inactive)
- GI50 (SK-MEL-2): 42 µM (inactive)
- GI50 (COLO 205): 19.5 µM (inactive)
- GI50 (RXF 393): 20.2 µM (inactive)
- GI50 (IGROV-1): 36.6 µM (inactive)
- GI50 (DU-145): > 86.3 µM (inactive)
- GI50 (MDA-N): 23.9 µM (inactive)
- GI50 (A549): 48.5 µM (inactive)
- GI50 (SNB-75): > 44.3 µM (inactive)
- GI50 (SW-620): 5.21 µM (inactive)

Compound: COc1cc(C2c3cc4c(cc3OC(NCCO)C2C)OCO4)cc(OC)c1OC (stereo not given)
- GI50 (NCI-H226): 0.644 µM (active)
- GI50 (NCI-H23): 1.19 µM (inactive)
- GI50 (RPMI-8226): 0.389 µM (active)
- GI50 (OVCAR-8): 2.2 µM (inactive)
- GI50 (UACC-257): 1.61 µM (inactive)
- GI50 (SF-539): 0.232 µM (active)
- GI50 (HOP-62): 0.289 µM (active)
- GI50 (BT-549): 3.66 µM (inactive)
- GI50 (T47D): > 74.3 µM (inactive)
- GI50 (TK-10): 15.9 µM (inactive)
- GI50 (HL-60): 0.309 µM (active)
- GI50 (SK-MEL-2): 3.42 µM (inactive)
- GI50 (COLO 205): 0.526 µM (active)
- GI50 (RXF 393): 0.426 µM (active)
- GI50 (IGROV-1): 0.687 µM (active)
- GI50 (DU-145): 0.678 µM (active)
- GI50 (MDA-N): 0.401 µM (active)
- GI50 (A549): 0.762 µM (active)
- GI50 (SNB-75): 1.12 µM (inactive)
- GI50 (SW-620): 0.326 µM (active)
